The source of these data is US10669284B2, “Fused thiazolopyrimidine derivatives as MNKS inhibitors” (LIFEARC, priority 2015, dated 2020).

In one assay the target is T1, Full-length human MNK1 (Homo sapiens, UniProt Q9BUB5, T385D).
T1 construct: GST (N); purchased Carna Biosciences 02-145; host or cells: baculovirus expression system
The assay can be described thus: MNK1 biochemical IC50 assay (Caliper Mobility Shift Assay). To be noted: read-out: P(IC50) MNK1 (converted).

The target in another assay is T2, Full-length human MNK2 (Homo sapiens, UniProt Q9HBH9, T379D).
T2 construct: GST (N); purchased Carna Biosciences 02-146; host or cells: baculovirus expression system
The assay can be described thus: MNK2 biochemical IC50 assay (Caliper Mobility Shift Assay). To be noted: read-out: P(IC50) MNK2 (converted).

The test system of assay [1] is phosphorylation of eIF4E at ser209 in MV4.11 cell line. The assay can be described thus: MNK cellular activity phospho-eIF4E detection assay (Alphascreen Surefire). Type of assay: cell-based. Conditions: Homo sapiens; MV4.11 cell line, phospho-eIF4E (ser209) Alphascreen Surefire; read-out: P(IC50) elF4E (converted). The essentials:
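AlphaScreen SureFire sandwich-immunoassay readout of phospho-eIF4E Ser209 in lysed MV4.11 cells; acceptor then donor beads, each 1.5 hr at room temperature. Signal normalised to untreated DMSO-only controls; duplicate curves, values averaged over at least 2 independent experiments.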
Background: In Alpha technology, singlet oxygen from a donor bead excites a nearby acceptor bead.

T1 sequence (Q9BUB5 1-424 isoform Q9BUB5-2 T344D): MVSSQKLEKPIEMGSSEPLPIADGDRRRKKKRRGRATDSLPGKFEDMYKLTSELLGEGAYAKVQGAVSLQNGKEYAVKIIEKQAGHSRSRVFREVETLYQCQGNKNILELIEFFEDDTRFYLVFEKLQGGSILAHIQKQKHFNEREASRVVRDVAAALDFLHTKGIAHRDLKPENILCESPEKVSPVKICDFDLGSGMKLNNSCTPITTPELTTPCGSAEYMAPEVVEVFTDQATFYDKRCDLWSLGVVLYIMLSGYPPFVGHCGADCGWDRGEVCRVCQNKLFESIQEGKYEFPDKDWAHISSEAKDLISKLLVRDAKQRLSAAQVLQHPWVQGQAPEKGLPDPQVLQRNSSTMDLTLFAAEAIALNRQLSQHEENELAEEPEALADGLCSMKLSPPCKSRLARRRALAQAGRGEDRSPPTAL
T2 sequence (Q9HBH9 whole entry T379D): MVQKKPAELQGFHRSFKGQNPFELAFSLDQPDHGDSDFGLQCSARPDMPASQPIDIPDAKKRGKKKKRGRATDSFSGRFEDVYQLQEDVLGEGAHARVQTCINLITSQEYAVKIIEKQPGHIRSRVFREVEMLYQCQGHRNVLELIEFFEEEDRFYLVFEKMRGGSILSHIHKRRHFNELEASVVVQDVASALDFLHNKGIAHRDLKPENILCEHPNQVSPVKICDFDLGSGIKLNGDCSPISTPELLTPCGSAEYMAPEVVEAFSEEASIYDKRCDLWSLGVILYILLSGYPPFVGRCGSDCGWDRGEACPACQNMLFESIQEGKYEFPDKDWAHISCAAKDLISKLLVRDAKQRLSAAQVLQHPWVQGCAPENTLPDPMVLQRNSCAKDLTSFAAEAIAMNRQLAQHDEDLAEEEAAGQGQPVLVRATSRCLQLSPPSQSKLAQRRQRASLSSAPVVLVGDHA

What is called IC50 is the concentration that gives 50% inhibition. As for `O=C(NCC1CCNCC1)c1nc2c(Nc3ccc(F)cc3O[C@H]3CCOC3)ncnc2s1` [Example 54, 7-[4-fluoro-2-[(3S)-tetrahydrofuran-3-yl]oxy-anilino]-N-(4-piperidylmethyl)thiazolo[5,4-d]pyrimidine-2-carboxamide], the IC50 was 0.0794 µM at Full-length human MNK1, 0.1 µM at Full-length human MNK2 and 0.2 µM in assay [1].

In the case of `CN(C)CCCNC(=O)c1nc2c(Nc3ccc(F)cc3O[C@H]3CCCC[C@@H]3O)ncnc2s1` [Example 19, N-[3-(dimethylamino)propyl]-7-[4-fluoro-2-[(1S,2S)-2-hydroxycyclohexoxy]anilino]thiazolo[5,4-d]pyrimidine-2-carboxamide], the IC50 on Full-length human MNK1 is 0.794 µM; at Full-length human MNK2 it was 0.794 µM; in assay [1], 0.251 µM.

On to `CC(C)Oc1c(F)cccc1Nc1ncnc2sc(C(=O)NCCCN(C)C)nc12` [Example 18, N-[3-(dimethylamino)propyl]-7-(3-fluoro-2-isopropoxy-anilino)thiazolo[5,4-d]pyrimidine-2-carboxamide], for which the 50% inhibitory concentration (IC50) on Full-length human MNK1 is 0.0501 µM; at Full-length human MNK2, 0.0501 µM; in assay [1], 0.0398 µM.

`CNC(=O)c1nc2c(N3CC(CCO)c4ccccc43)ncnc2s1` (stereo not drawn) [Example 157]: the figures for the IC50 (at Full-length human MNK1; at Full-length human MNK2; in assay [1]) were 0.0316 µM, 0.02 µM and 0.01 µM, respectively.

As for `C[C@H]1Cc2ccccc2N1c1ncnc2sc(C(=O)NC3CCOCC3)nc12` [Example 133, 7-[(2S)-2-methylindolin-1-yl]-N-tetrahydropyran-4-yl-thiazolo[5,4-d]pyrimidine-2-carboxamide], the IC50 on Full-length human MNK1 is 0.0794 µM; on Full-length human MNK2, 0.0398 µM; in assay [1], 0.0501 µM.

On to `CC1(C)CN(c2ncnc3sc(C(=O)NC4CCOCC4)nc23)c2ccc(F)cc21` [Example 105, 7-(5-Fluoro-3,3-dimethyl-indolin-1-yl)-N-tetrahydropyran-4-yl-thiazolo[5,4-d]pyrimidine-2-carboxamide], for which the IC50 on Full-length human MNK1 is 0.002 µM; on Full-length human MNK2, 0.00316 µM; in assay [1], 0.00251 µM.

On to `CNCC1CN(c2ncnc3sc(C(=O)NC4CCOCC4)nc23)c2ccccc21` (stereo not drawn) [Example 120, 7-[3-(Methylaminomethyl)indolin-1-yl]-N-tetrahydropyran-4-yl-thiazolo[5,4-d]pyrimidine-2-carboxamide], for which the figures for the IC50 (on Full-length human MNK1; on Full-length human MNK2; in assay [1]) were 0.0501 µM, 0.0316 µM and 0.126 µM, respectively.

For the molecule `O=C(NC1CCOCC1)c1nc2c(N3CCc4cc(Cl)cc(F)c43)ncnc2s1` [Example 91, 7-(5-Chloro-7-fluoro-indolin-1-yl)-N-tetrahydropyran-4-yl-thiazolo[5,4-d]pyrimidine-2-carboxamide], the half-maximal inhibitory concentration (IC50) is 0.0631 µM on Full-length human MNK1, 0.0501 µM on Full-length human MNK2 and 0.1 µM in assay [1].

Turning to `O=C(NCC1CCNCC1)c1nc2c(N3CCOc4cc(F)ccc43)ncnc2s1` [Example 56, 7-(7-fluoro-2,3-dihydro-1,4-benzoxazin-4-yl)-N-(4-piperidylmethyl)thiazolo[5,4-d]pyrimidine-2-carboxamide], the values for the IC50 (at Full-length human MNK1; on Full-length human MNK2; in assay [1]) were 1 µM, 0.794 µM and 0.794 µM, respectively.

For the molecule `O=C(NC1CC1)c1nc2c(N3CCc4ccccc43)ncnc2s1` [Example 99, N-cyclopropyl-7-indolin-1-yl-thiazolo[5,4-d]pyrimidine-2-carboxamide], the figures for the concentration for half-maximal inhibition (IC50) (at Full-length human MNK1; on Full-length human MNK2; in assay [1]) were 0.0126 µM, 0.00501 µM and 0.0158 µM, respectively.

On to `CC(C)(O)CC1CN(c2ncnc3sc(C(=O)NCC4CCNCC4)nc23)c2ccccc21` (stereo not drawn) [Example 142], for which the results for the IC50 (at Full-length human MNK1; on Full-length human MNK2; in assay [1]) were 0.0158 µM, 0.0158 µM and 0.01 µM, respectively.

As for `O=C(NCC1CCNCC1)c1nc2c(N3CCc4ccccc43)ncnc2s1` [Example 94, 7-Indolin-1-yl-N-(4-piperidylmethyl)thiazolo[5,4-d]pyrimidine-2-carboxamide], the IC50 at Full-length human MNK1 was 0.00631 µM; at Full-length human MNK2, 0.00398 µM; in assay [1], 0.00794 µM.

`CO[C@@H]1CCCC[C@H]1Oc1cc(F)ccc1Nc1ncnc2sc(C(=O)NCCCN(C)C)nc12` [Example 20, N-[3-(dimethylamino)propyl]-7-[4-fluoro-2-[(1R,2R)-2-methoxycyclohexoxy]anilino]thiazolo[5,4-d]pyrimidine-2-carboxamide]: the IC50 at Full-length human MNK1 is 0.794 µM; at Full-length human MNK2 it was 0.398 µM; in assay [1] it was 0.316 µM.

Consider `CC(C)Oc1cc(F)ccc1Nc1ncnc2sc(C(=O)NC3CNC3)nc12` [Example 28, N-(azetidin-3-yl)-7-{[4-fluoro-2-(propan-2-yloxy)phenyl]amino}[1,3]thiazolo[5,4-d]pyrimidine-2-carboxamide], for which the figures for the IC50 (at Full-length human MNK1; on Full-length human MNK2; in assay [1]) were 0.126 µM, 0.0794 µM and 0.0794 µM, respectively.

With `CC(C)Oc1cc(F)ccc1Nc1ncnc2sc(C(=O)N3CCC(CCO)CC3)nc12` [Example 11, [7-(4-fluoro-2-isopropoxy-anilino)thiazolo[5,4-d]pyrimidin-2-yl]-[4-(2 hydroxyethyl)-1-piperidyl]methanone], the values for the half-maximal inhibitory concentration (IC50) (on Full-length human MNK1; on Full-length human MNK2; in assay [1]) were 0.398 µM, 0.316 µM and 0.316 µM, respectively.

Consider `O=C(NCC1CCNCC1)c1nc2c(N3CCc4cc(Br)ccc43)ncnc2s1` [Example 169, 7-(5-Bromoindolin-1-yl)-N-(4-piperidylmethyl)thiazolo[5,4-d]pyrimidine-2-carboxamide], for which the IC50 at Full-length human MNK1 was 0.00794 µM; on Full-length human MNK2 it was 0.00794 µM; in assay [1] it was 0.0316 µM.

Regarding `CN(C)CCCNC(=O)c1nc2c(Nc3ccc(F)cc3O[C@H]3CCCOC3)ncnc2s1` [Example 17, N-[3-(dimethylamino)propyl]-7-[4-fluoro-2-[(3S)-tetrahydropyran-3-yl]oxy-anilino]thiazolo[5,4-d]pyrimidine-2-carboxamide], the IC50 on Full-length human MNK1 was 0.126 µM; on Full-length human MNK2 it was 0.1 µM; in assay [1], 0.1 µM.

Take `O=C(NC1CCOCC1)c1nc2c(N3CC4(CCCC4)c4ccccc43)ncnc2s1` [Example 41, 7-(Spiro[cyclopentane-1,3′-indol]-1′(2′H)-yl)-N-(tetrahydro-2H-pyran-4-yl)[1,3]thiazolo[5,4-d]pyrimidine-2-carboxamide]: the values for the IC50 (at Full-length human MNK1; on Full-length human MNK2; in assay [1]) were 0.0251 µM, 0.0126 µM and 0.02 µM, respectively.

Regarding `CC1Cc2ccccc2N1c1ncnc2sc(C(=O)NCCCN(C)C)nc12` (stereo not drawn) [Example 124], the figures for the IC50 (on Full-length human MNK1; on Full-length human MNK2; in assay [1]) were 0.0251 µM, 0.02 µM and 0.0316 µM, respectively.

On to `CN1CCC(CNC(=O)c2nc3c(N4CCc5cccc(F)c54)ncnc3s2)CC1` [Example 93, 7-(7-fluoroindolin-1-yl)-N-[(1-methyl-4-piperidyl)methyl]thiazolo [5,4-d]pyrimidine-2-carboxamide], for which the values for the IC50 (at Full-length human MNK1; on Full-length human MNK2; in assay [1]) were 0.2 µM, 0.158 µM and 0.251 µM, respectively.

As to `CC1CN(c2ncnc3sc(C(=O)NCC4CCNCC4)nc23)c2ccccc21` (stereo not drawn) [Example 146], the results for the IC50 (at Full-length human MNK1; on Full-length human MNK2; in assay [1]) were 0.00631 µM, 0.00794 µM and 0.00501 µM, respectively.

Consider `O=C(NCC1CCNCC1)c1nc2c(N3CC(CCO)c4cc(F)ccc43)ncnc2s1` (stereo not drawn) [Example 139], for which the IC50 at Full-length human MNK1 was 0.00251 µM; on Full-length human MNK2, 0.00316 µM; in assay [1], 0.0316 µM.

Turning to `CCOc1cc(F)ccc1Nc1ncnc2sc(C(=O)NCC3CCNCC3)nc12` [Example 53, 7-(2-ethoxy-4-fluoro-anilino)-4-(4-piperidylmethyl)thiazolo[5,4-d]pyrimidine-2-carboxamide], the results for the IC50 (at Full-length human MNK1; at Full-length human MNK2; in assay [1]) were 0.1 µM, 0.126 µM and 0.126 µM, respectively.

Consider `O=C(NC1CCOCC1)c1nc2c(N3CCc4ccccc43)ncnc2s1` [Example 106, 7-Indolin-1-yl-N-tetrahydropyran-4-yl-thiazolo[5,4-d]pyrimidine-2-carboxamide], for which the IC50 at Full-length human MNK1 is 0.0126 µM; on Full-length human MNK2 it was 0.00794 µM; in assay [1], 0.02 µM.

With `CC(C)Oc1cc(F)ccc1Nc1ncnc2sc(C(=O)NCC3CCN(C)CC3)nc12` [Example 36, 7-{[4-fluoro-2-(propan-2-yloxy)phenyl]amino}-N-[(1-methylpiperidin-4-yl)methyl][1,3]thiazolo[5,4-d]pyrimidine-2-carboxamide], the IC50 (at Full-length human MNK1; at Full-length human MNK2; in assay [1]) was 0.0501 µM each time.

For `CC1Cc2ccccc2N1c1ncnc2sc(C(=O)NC3CCN(C)CC3)nc12` (stereo not drawn) [Example 123, 7-(2-Methylindolin-1-yl)-N-(1-methyl-4-piperidyl)thiazolo[5,4-d]pyrimidine-2-carboxamide], the figures for the IC50 (at Full-length human MNK1; at Full-length human MNK2; in assay [1]) were 0.0251 µM, 0.0158 µM and 0.02 µM, respectively.

Consider `O=C(NC1CCOCC1)c1nc2c(N3CCc4cccc(F)c43)ncnc2s1` [Example 90, 7-(7-Fluoroindolin-1-yl)-N-tetrahydropyran-4-yl-thiazolo[5,4-d]pyrimidine-2-carboxamide], for which the IC50 on Full-length human MNK1 is 0.126 µM; at Full-length human MNK2, 0.126 µM; in assay [1] it was 0.158 µM.

`CC(=O)Nc1ccc2c(c1)CCN2c1ncnc2sc(C(=O)NC3CCN(C)CC3)nc12` [Example 46, 7-[5-(Acetylamino)-2,3-dihydro-1H-indol-1-yl]-N-(1-methylpiperidin-4-yl)[1,3]thiazolo[5,4-d]pyrimidine-2-carboxamide]: the results for the IC50 (on Full-length human MNK1; on Full-length human MNK2; in assay [1]) were 0.501 µM, 0.2 µM and 0.1 µM, respectively.

For the molecule `CC1(C)CN(c2ncnc3sc(C(=O)NC4CCNCC4)nc23)c2ccccc21` [Example 162], the IC50 was 0.00631 µM on Full-length human MNK1, 0.00501 µM on Full-length human MNK2 and 0.00794 µM in assay [1].
